From patent US20110283416A1, “METHODS FOR PLANT FIBER CHARACTERIZATION AND IDENTIFICATION” (LE CENTRE NATIONAL DE LA RECHERCHE SCIENTIFIQUE, priority 2008, published 2011)
Where two headings read alike, the source gives them in different places.

Legend:
[1] = target: T1, CYP77A4 (Arabidopsis thaliana, UniProt Q9LZ31); settings: for conversion as substrate of CYP77A4 (in words) / amount of conversion of fatty acid: 100 μM fatty acid, 10 pmole CYP77A4, 27° C., 15 minutes (FIG. 4); for epoxide product formed by CYP77A4 (GC-MS identification): 100 μM substrate, 15-20 min
T1 sequence (Q9LZ31 1-512): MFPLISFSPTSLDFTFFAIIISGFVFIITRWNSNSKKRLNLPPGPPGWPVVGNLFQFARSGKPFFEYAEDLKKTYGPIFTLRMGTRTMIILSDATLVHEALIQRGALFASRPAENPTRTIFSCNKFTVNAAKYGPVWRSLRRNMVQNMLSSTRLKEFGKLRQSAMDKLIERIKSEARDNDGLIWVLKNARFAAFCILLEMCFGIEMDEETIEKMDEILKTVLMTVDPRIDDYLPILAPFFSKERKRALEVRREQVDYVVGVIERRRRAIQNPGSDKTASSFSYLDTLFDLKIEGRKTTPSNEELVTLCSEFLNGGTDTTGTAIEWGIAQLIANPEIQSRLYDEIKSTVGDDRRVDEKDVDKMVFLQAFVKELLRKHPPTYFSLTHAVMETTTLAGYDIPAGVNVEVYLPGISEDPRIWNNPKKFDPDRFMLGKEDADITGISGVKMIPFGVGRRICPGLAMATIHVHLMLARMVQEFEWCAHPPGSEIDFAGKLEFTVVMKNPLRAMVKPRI

[2] = target: T1, CYP77A4; type: biochemical; settings: 4.5 pmoles CYP77A4, 5 min, calculated with Enzyme Kinetics (Sigma Plot); for Km: read-out: Km for metabolism by CYP77A4
[3] = test system: CYP77A4 expression; settings: in vivo
[4] = test system: CYP77A4 expression; experiment: Induction of CYP77A4 expression by external factors, quantitative PCR on entire plantlets; settings: after 5 hours; ethanol as control; qPCR (FIG. 3)
[5] = 27° C., 10 pmole CYP77A4, NADPH
[6] = GC-MS analysis of metabolite fraction
[7] = 100 μM, 15 minutes, 27° C., 10 pmole CYP77A4, NADPH

SMILES | conversion as substrate of CYP77A4 (in words) [1] | epoxide product formed by CYP77A4 (GC-MS identification) [1, 5] | Vmax for metabolism by CYP77A4 [2] | Km [2] | amount of conversion of fatty acid [1] | other results
CCCCC/C=C\C/C=C\CCCCCCCC(=O)O [linoleic acid] | increasing order of conversion | 12-13 epoxy form of linolenic acid | 13±0.3 nmol·min^−1·nmol^−1 P450 | 61 ± 3 µM |  | 
CCCCCCCCCCCC(=O)O [C12:0, lauric acid] | optimal substrate |  |  |  | about 35% | share of omega-1 hydroxylated metabolite [1, 6]: 53%; share of omega-2 hydroxylated metabolite [1, 6]: 15.2%; share of omega-3 hydroxylated metabolite [1, 6]: 7.6%; share of omega-4 hydroxylated metabolite [1, 6]: 18.2%; share of omega-5 hydroxylated metabolite [1, 6]: 6%
CC/C=C\C/C=C\C/C=C\CCCCCCCC(=O)O [linolenic acid] | increasing order of conversion |  |  | 29 ± 4 µM | about 20% | share of 12-13 mono-epoxy form among mono-epoxy products [1, 7]: 87%; share of each of the other two mono-epoxy structures [1, 7]: 6.5%
OC[C@@H](O)[C@@H](O)[C@H](O)[C@H](O)CO [mannitol] |  |  |  |  |  | induction of the expression of CYP77A4 [3]: ~20 fold; induction of the transcription of CYP77A4 [3]: 18 fold
CCC1(c2ccccc2)C(=O)NC(=O)NC1=O [phenobarbital] |  |  |  |  |  | induction of the expression of CYP77A4 [4]: 12 fold
CCCCCCCC/C=C\CCCCCCCC(=O)O [oleic acid] | increasing order of conversion | epoxy form (at position 9, 10) of oleic acid | 26±5 nmol·min^−1·nmol^−1 P450 |  |  | 
